Assay results reported in patent publication US20070105910A1, “Medicinal composition” (priority 2003, published 2007).
Structures can show the parent of a compound that is named as a salt.

Assay: Repeated oral administration test for 10 days using rats: blood hemoglobin (Hb)
Type: in vivo
Settings: SD rats; after 10 days oral administration; pioglitazone hydrochloride 240 mg/kg/day, benfotiamine 100 mg/kg/day where combined
Description: After termination of the administration, the blood was collected from the rats and the hemoglobin (Hb) value was determined. Then, the rats were killed, and their hearts were weighed (relative weight).

CCc1ccc(CCOc2ccc(CC3SC(=O)NC3=O)cc2)nc1 (stereo not shown) [Pioglitazone HCl, pioglitazone hydrochloride]
Blood Hb conc. after administration: 13.6 g/dL
